Test results as given in patent US9394284B2, “Compounds act at multiple prostaglandin receptors giving a general anti-inflammatory response” (Allergan, Inc., priority 2010, dated 2016).

What was measured:
Type in all cases: cell-based
[1] = target: T1, human prostanoid EP4 receptor (Homo sapiens, UniProt P35408); experiment: FLIPR Ca2+ signaling antagonist assay, EP4 receptor stable cell line; details: HEK-293 EBNA stable cell line; standard agonist PGE2; NA = inactive (no antagonism or Kb 10,000 nM); PAg, Ag not defined
T1 construct: expressed in transfected cells
Outline: (§1)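 Peak Fluo-4 fluorescence (ex 470–495, em 515–575 nm) was read for 3.5 min on FLIPR after agonist injection and expressed relative to 10^−6 M standard agonist. Cells were HEK-293 EBNA transfectants. Test compound was added 4.5 min beforehand at 0.1–30 μM, or 0.067–1 μM for TP.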

[2] = target: T2, human prostanoid EP3 receptor (Homo sapiens, UniProt P43115); experiment: FLIPR Ca2+ signaling antagonist assay, EP3 receptor stable cell line; details: HEK-293 EBNA stable cell line; standard agonist PGE2; NA = inactive (no antagonism or Kb 10,000 nM); PAg, Ag not defined
T2 construct: expressed in transfected cells
T2 sequence (P43115 1-390): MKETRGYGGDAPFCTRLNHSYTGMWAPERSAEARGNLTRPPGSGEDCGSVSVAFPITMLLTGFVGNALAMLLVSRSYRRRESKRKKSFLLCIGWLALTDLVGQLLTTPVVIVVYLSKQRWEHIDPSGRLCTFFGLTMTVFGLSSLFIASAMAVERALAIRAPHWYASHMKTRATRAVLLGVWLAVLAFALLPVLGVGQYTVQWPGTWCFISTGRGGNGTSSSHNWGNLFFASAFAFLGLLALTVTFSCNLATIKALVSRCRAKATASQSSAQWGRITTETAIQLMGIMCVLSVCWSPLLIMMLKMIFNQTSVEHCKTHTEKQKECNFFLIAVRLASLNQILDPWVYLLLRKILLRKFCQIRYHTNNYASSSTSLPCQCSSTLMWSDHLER
Protocol: (§2) The above compounds were tested for PG antagonist activity as follows using human recombinant prostanoid receptor (DP1, EP1-4, FP, IP and TP) stable cell lines:
(§3) In order to measure the response of Gs and Gi coupled prostanoid receptors as a Ca^2+ signal, chimeric G protein cDNAs were used. Stable cell lines over-expressing human prostanoid DP1, EP1-4, FP, IP, and TP receptors were established as follows:
(§4) Briefly, human prostanoid DP1, EP2, and EP4 receptor cDNAs were co-transfected with chimeric Gqs cDNA containing a haemagglutanin (HA) epitope; human prostanoid EP3 receptors were co-transfected with chimeric Gqi-HA; human EP1, FP, IP, and TP receptor cDNAs were expressed with no exogenous G-proteins. Gqs and Gqi chimeric cDNAs (Molecular Devices, Sunnyvale, Calif., U.S.A.), as well as cDNAs of prostanoid receptors, were cloned into a pCEP4 vector with a hygromycin B selection marker. Transfection into HEK-293 EBNA (Epstein-Barr virus nuclear antigen) cells was achieved by the FuGENE 6 transfection Reagent (Roche Applied Science, Indianapolis, Ind., USA). Stable transfectants were selected according to hygromycin resistance. Because Gqs and Gqi contained an HA epitope, G-protein expression was detected by Western blotting analysis using anti-mouse HA monoclonal antibody and horseradish peroxidase (HRP)-conjugated secondary antibody, while functional expression of prostanoid receptors was detected by FLIPR screening (Matias et al., 2004). These stable cell lines were validated using previously published antagonists at 10 μM against serial dilutions of standard agonists by FLIPR functional assays for Ca^2+ Signaling (as described below).
(§5) Ca^2+ signaling studies were performed using a FLIPR TETRA system (Molecular Devices, Sunnyvale, Calif., USA) in the 384-format. This is a high-throughput instrument for cell-based assays to monitor Ca^2+ signaling associated with GPCRs and ion channels. Cells were seeded at a density of 5×10^4 cells/well in BioCoat poly-D-lysine coated, black wall, clear bottom 384-well plates (BD Biosciences, Franklin lakes, NJ, USA) and allowed to attach overnight in an incubator at 37° C. The cells were then washed twice with HBSS-HEPES buffer (Hanks' balanced salt solution without bicarbonate and phenol red, 20 mM HEPES, pH 7.4) using an ELx405 Select CW Microplate Washer (BioTek, Winooski, Vt., USA). After 60 min of dye-loading in the dark using the Ca^2+-sensitive dye Fluo-4AM (Invitrogen, Carlsbad, Calif., USA), at a final concentration of 2×10^−6M, the plates were washed 4 times with HBSS-HEPES buffer to remove excess dye and leaving 50 μl of buffer in each well. The plates were then placed in the FLIPR TETRA instrument and allowed to equilibrate at 37° C. AGN-211377 was added in a 25 μl volume to each well to give final concentrations of 0.1 μM, 0.3 μM, 1 μM, 3 μM, 10 μM, and 30 μM; or 0.067 μM, 0.1 μM, 0.2 μM, 0.3 μM, 0.67 μM, and 1 μM for cells over-expressing TP receptors. After 4.5 minutes, a 7-point serial dilution of the standard agonist for the corresponding receptor, in a 25 μl volume was injected at the final concentrations from 10^−11M to 10^−5M in 10-fold serial dilution increments for cells expressing human recombinant DP1, EP1, EP2, EP3, EP4, FP, and IP receptors. The dose range for the standard agonist for human recombinant TP receptors was from 10^−12 M to 10^−6 M. HBSS-HEPES buffer was used as the negative control for the standard agonists. Cells were excited with LED (light emitting diode) excitation at 470-495 nm and emission was measured through an emission filter at 515-575 nm. Assay plates were read for 3.5 minutes using the FLIPR^TETRA. The peak increase in fluorescence intensity was recorded for each well. On each plate, negative controls, dose response of positive controls, and co-treatments of antagonist-agonist for each dose were in triplicates.
(§6) Standard agonists were as follows: DP=BW 245C, EP1-EP4=PGE2, FP=17-phenyl-PGF2α, IP=Cicaprost, and TP=U-46619. […]

[3] = target: T3, human prostanoid DP1 receptor (Homo sapiens, UniProt Q13258); experiment: FLIPR Ca2+ signaling antagonist assay, DP1 receptor stable cell line; details: HEK-293 EBNA stable cell line; standard agonist BW 245C; NA = inactive (no antagonism or Kb 10,000 nM); PAg, Ag not defined
T3 construct: expressed in transfected cells
T3 sequence (Q13258 1-359): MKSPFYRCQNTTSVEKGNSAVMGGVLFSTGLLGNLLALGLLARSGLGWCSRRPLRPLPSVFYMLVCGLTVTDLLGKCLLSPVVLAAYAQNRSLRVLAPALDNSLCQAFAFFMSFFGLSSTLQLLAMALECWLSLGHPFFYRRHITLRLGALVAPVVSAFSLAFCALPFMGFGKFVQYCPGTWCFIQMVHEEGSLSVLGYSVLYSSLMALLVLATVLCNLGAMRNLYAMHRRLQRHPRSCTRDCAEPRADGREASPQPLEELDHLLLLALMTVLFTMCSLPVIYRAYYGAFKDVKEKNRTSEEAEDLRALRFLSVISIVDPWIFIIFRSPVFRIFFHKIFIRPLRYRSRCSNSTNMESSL
Outline: as §1

[4] = target: T4, human prostanoid EP2 receptor (Homo sapiens, UniProt P43116); experiment: FLIPR Ca2+ signaling antagonist assay, EP2 receptor stable cell line; details: HEK-293 EBNA stable cell line; standard agonist PGE2; NA = inactive (no antagonism or Kb 10,000 nM); PAg, Ag not defined
T4 construct: expressed in transfected cells
Protocol: as §2, §3, §4, §5, §6

T1 sequence (P35408 whole entry): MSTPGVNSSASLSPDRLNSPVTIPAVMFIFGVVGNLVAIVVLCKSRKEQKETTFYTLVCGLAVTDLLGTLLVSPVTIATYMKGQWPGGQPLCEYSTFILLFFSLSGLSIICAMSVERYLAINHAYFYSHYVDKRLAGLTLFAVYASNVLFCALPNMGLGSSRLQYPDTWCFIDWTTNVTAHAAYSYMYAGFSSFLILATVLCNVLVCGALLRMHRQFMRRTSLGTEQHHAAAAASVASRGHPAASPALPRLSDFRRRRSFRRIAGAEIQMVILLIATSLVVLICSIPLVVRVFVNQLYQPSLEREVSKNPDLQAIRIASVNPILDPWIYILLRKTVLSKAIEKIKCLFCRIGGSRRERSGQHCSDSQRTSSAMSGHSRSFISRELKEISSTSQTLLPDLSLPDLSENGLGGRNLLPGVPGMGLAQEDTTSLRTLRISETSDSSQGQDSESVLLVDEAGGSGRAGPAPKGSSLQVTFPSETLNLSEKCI
T4 sequence (P43116 whole entry): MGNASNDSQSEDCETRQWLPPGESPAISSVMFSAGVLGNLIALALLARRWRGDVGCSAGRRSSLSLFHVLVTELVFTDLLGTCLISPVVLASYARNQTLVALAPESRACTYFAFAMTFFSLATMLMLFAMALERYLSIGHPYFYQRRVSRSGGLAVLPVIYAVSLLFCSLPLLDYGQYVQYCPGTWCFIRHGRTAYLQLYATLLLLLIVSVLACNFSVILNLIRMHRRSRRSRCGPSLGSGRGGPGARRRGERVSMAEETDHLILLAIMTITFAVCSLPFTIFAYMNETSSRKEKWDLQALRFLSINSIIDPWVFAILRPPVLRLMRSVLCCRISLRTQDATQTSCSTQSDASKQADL

Row | Kb [1] [nM] | Kb [2] [nM] | Kb [3] [nM] | DP1 (FLIPR) Kb [3] | Structure (SMILES) | Kb [4] [nM] | EP4 (FLIPR) Kb [1] | EP3 (FLIPR) Kb [2]
1 | 1000 | 8300 | 900 | – | Cc1cc(CCC(=O)O)nn1Cc1cc(Br)ccc1OCC1(C(F)(F)F)CCC1 [Example 13, 3-[1-(5-Bromo-2-(1-trifluoromethylcyclobutylmethoxy)-benzyl)-5-methyl-1H-pyrazol-3-yl]-propionic acid] | – | – | –
2 | 500 | 5400 | – | PAg | Cc1cc(CCC(=O)O)nn1Cc1cc(Cl)ccc1OCC(C)(C)C [Example 35, 3-[1-(5-Chloro-2-(2,2-dimethylropoxy)benzyl)-5-methyl-1H-pyrazol-3-yl]-propionic acid] | 3200 | – | –
3 | 600 | 2700 | 700 | – | Cc1cc(CCC(=O)O)nn1Cc1cc(Cl)ccc1C#CC1CCCC1 [Example 73, 3-{1-[5-Chloro-2-cyclopentylethynyl-benzyl]-5-methyl-1H-pyrazol-3-yl}-propionic acid] | – | – | –
4 | 150 | 500 | 200 | – | Cc1cc(CCC(=O)NS(=O)(=O)C(F)(F)F)nn1Cc1cc(Cl)ccc1OCc1ccc(Cl)cc1Cl [Example 27, N-(3-[1-(5-Chloro-2-(2,4-dichlorobenzyloxy)benzyl)-5-methyl-1H-pyrazol-3-yl]-propionyl)C,C,C-trifluoromethanesulfonamide] | – | – | –
5 | 1000 | 1600 | 350 | – | Cc1cc(CCC(=O)NS(=O)(=O)C(F)(F)F)nn1Cc1cc(Cl)ccc1CCC1CCCC1 [Example 75] | – | – | –
6 | 1100 | 8800 | 180 | – | CCCCC(CC)COc1ccc(Br)cc1Cn1nc(CCC(=O)O)cc1C (centres unmarked) [Example 6, 3-[1-(5-Bromo-2-(2-ethyl-hexyloxy)-benzyl)-5-methyl-1H-pyrazol-3-yl]-propionic acid] | – | – | –
7 | 8400 | 7100 | 500 | – | Cc1cc(CCC(=O)O)nn1Cc1cc(Cl)ccc1OCc1ccc(Cl)cc1Cl [Example 26, 3-[1-(5-Chloro-2-(2,4-dichlorobenzyloxy)benzyl)-5-methyl-1H-pyrazol-3-yl]-propionic acid] | – | – | –
8 | 80 | 3200 | 900 | – | Cc1cc(CC(C)(C)C(=O)O)nn1Cc1cc(Br)ccc1OCC1CCCC1 [Example 71, 3-{1-[5-Bromo-2-(2-cyclopentylmethoxy)-benzyl]-5-methyl-1H-pyrazol-3-yl}-2,2-dimethyl-propionic acid] | – | – | –
9 | 400 | 6400 | 110 | – | CCCC(C)COc1ccc(Br)cc1Cn1nc(CCC(=O)O)cc1C (centres unmarked) [Example 8, 3-[1-(5-Bromo-2-(2-methyl-pentyloxy)-benzyl)-5-methyl-1H-pyrazol-3-yl]-propionic acid] | – | – | –
10 | – | 4500 | 1330 | – | Cc1cc(CCC(=O)NS(=O)(=O)CC(F)(F)F)nn1Cc1cc(Cl)ccc1OCc1ccc(Cl)cc1 [Example 25, 2,2,2-trifluoroethanesulfonic acid-(3-[1-(5-Chloro-2-(4-chlorobenzyloxy)benzyl)-5-methyl-1H-pyrazol-3-yl]-propionyl)amide] | – | Ag | –

Row | Structure (SMILES) | Kb [1] [nM] | Kb [2] [nM] | Kb [3] [nM] | DP1 (FLIPR) Kb [3] | Kb [4] [nM] | EP4 (FLIPR) Kb [1] | EP3 (FLIPR) Kb [2]
11 | CCC(CC)COc1ccc(Cl)cc1Cn1nc(CC(C)C(=O)O)cc1C (racemic) [Example 68, 3-{1-[5-Chloro-2-(2-ethyl-butoxy)-benzyl]-5-methyl-1H-pyrazol-3-yl}-2-methyl-propionic acid] | 130 | 5200 | 260 | – | 45 | – | –
12 | CCC(CC)COc1ccc(Br)cc1Cn1nc(CCC(=O)O)cc1C(F)(F)F [Example 58, 3-{1-[5-Bromo-2-(2-ethyl-butoxy)-benzyl]-5-trifluororomethyl-1H-pyrazol-3-yl}-propionic acid] | – | – | 60 | – | – | PAg | PAg
13 | CCCc1cc(CCC(=O)O)nn1Cc1cc(Br)ccc1OCC(CC)CC [Example 56, 3-{1-[5-Bromo-2-(2-ethyl-butoxy)-benzyl]-5-propyl-1H-pyrazol-3-yl}-propionic acid] | 3 | 2700 | 800 | – | – | – | –
14 | CCC(CC)COc1ccc(Br)cc1Cn1nc(CCC(=O)NS(=O)(=O)C(F)(F)F)cc1C [Example 17, N-(3-{1-[5-Bromo-2-(2-ethyl-butoxy)-benzyl]-5-methyl-1H-pyrazol-3-yl}-propionyl)-C,C,C-trifluoro-methanesulfonamide] | 35 | 1000 | 200 | – | – | – | –
15 | Cc1cc(CCC(=O)NS(=O)(=O)C(F)(F)F)nn1Cc1cc(Br)ccc1OCC(C)C [Example 19, N-(3-{1-[5-Bromo-2-isobutoxybenzyl]-5-methyl-1H-pyrazol-3-yl}-propionyl)-C,C,C-trifluoro-methanesulfonamide] | 30 | 700 | 200 | – | – | – | –
16 | CCC(CC)COc1ccc(Br)cc1Cn1nc(CCC(=O)O)cc1C(C)C [Example 55, 3-{1-[5-Bromo-2-(2-ethyl-butoxy)-benzyl]-5-isopropyl-1H-pyrazol-3-yl}-propionic acid] | 80 | 3700 | 540 | – | – | – | –
17 | CCC(CC)COc1ccc(Br)cc1Cn1nc(CCC(=O)O)cc1C(C)(C)C [Example 57, 3-{1-[5-Bromo-2-(2-ethyl-butoxy)-benzyl]-5-tert-butyl-1H-pyrazol-3-yl}-propionic acid] | 700 | 6600 | 1600 | – | – | – | –
